# Columns and labels:
# Assay in all cases: Kinome-wide inhibition profiling
# Format in all cases: biochemical
# [1] = molecular target: T1, CAMK2g (Homo sapiens, UniProt Q13555)
# T1 construct: purchased Reaction Biology Corp
# Description: (§1) In vitro CDK12/cyclinK assays for all compounds and in vitro kinome-wide inhibition profiling of 30d at 10 μM were performed by a CRO company (Reaction Biology Corp., San Diego, CA, USA).
# [2] = molecular target: T2, HPK1 (Homo sapiens, UniProt Q92918)
# T2 construct: purchased Reaction Biology Corp
# Description: as §1
# [3] = molecular target: T3, MELK (Homo sapiens, UniProt Q14680)
# T3 construct: purchased Reaction Biology Corp
# Description: as §1
# [4] = molecular target: T4, TEC (Homo sapiens, UniProt P42680)
# T4 construct: purchased Reaction Biology Corp
# Description: as §1
# [5] = molecular target: T5, PHKg1 (Homo sapiens, UniProt Q16816)
# T5 construct: purchased Reaction Biology Corp
# Description: as §1
# [6] = molecular target: T6, GRK5 (Homo sapiens, UniProt P34947)
# T6 construct: purchased Reaction Biology Corp
# Description: as §1
# [7] = molecular target: T7, HIPK2 (Homo sapiens, UniProt Q9H2X6)
# T7 construct: purchased Reaction Biology Corp
# Description: as §1
# [8] = molecular target: T8, PIM3 (Homo sapiens, UniProt Q86V86)
# T8 construct: purchased Reaction Biology Corp
# Description: as §1
# [9] = molecular target: T9, p70S6Kb/RPS6KB2 (Homo sapiens, UniProt Q9UBS0)
# T9 construct: purchased Reaction Biology Corp
# Description: as §1
# [10] = molecular target: T10, PBK/TOPK (Homo sapiens, UniProt Q96KB5)
# T10 construct: purchased Reaction Biology Corp
# Description: as §1
# [11] = molecular target: T11, EPHA8 (Homo sapiens, UniProt P29322)
# T11 construct: purchased Reaction Biology Corp
# Description: as §1
# [12] = molecular target: T12, ABL2 (Homo sapiens, UniProt P42684)
# T12 construct: purchased Reaction Biology Corp
# Description: as §1
# [13] = molecular target: T13, MAPKAPK3 (Homo sapiens, UniProt Q16644)
# T13 construct: purchased Reaction Biology Corp
# Description: as §1
# [14] = molecular target: T14, TESK1 (Homo sapiens, UniProt Q15569)
# T14 construct: purchased Reaction Biology Corp
# Description: as §1
# [15] = molecular target: T15, TSSK1B (Homo sapiens, UniProt Q9BXA7)
# T15 construct: purchased Reaction Biology Corp
# Description: as §1
# [16] = molecular target: T16, DMPK2 (Homo sapiens, UniProt Q6DT37)
# T16 construct: purchased Reaction Biology Corp
# Description: as §1
# [17] = molecular target: T17, NEK3 (Homo sapiens, UniProt P51956)
# T17 construct: purchased Reaction Biology Corp
# Description: as §1
# [18] = molecular target: T18, RPS6KA5(Kin.Dom.1-N-term) (Homo sapiens, UniProt O75582)
# T18 construct: RPS6KA5(Kin.Dom.1-N-term); purchased Reaction Biology Corp
# Description: as §1
# [19] = molecular target: T19, CAMK2b (Homo sapiens, UniProt Q13554)
# T19 construct: purchased Reaction Biology Corp
# T19 sequence (Q13554 whole entry): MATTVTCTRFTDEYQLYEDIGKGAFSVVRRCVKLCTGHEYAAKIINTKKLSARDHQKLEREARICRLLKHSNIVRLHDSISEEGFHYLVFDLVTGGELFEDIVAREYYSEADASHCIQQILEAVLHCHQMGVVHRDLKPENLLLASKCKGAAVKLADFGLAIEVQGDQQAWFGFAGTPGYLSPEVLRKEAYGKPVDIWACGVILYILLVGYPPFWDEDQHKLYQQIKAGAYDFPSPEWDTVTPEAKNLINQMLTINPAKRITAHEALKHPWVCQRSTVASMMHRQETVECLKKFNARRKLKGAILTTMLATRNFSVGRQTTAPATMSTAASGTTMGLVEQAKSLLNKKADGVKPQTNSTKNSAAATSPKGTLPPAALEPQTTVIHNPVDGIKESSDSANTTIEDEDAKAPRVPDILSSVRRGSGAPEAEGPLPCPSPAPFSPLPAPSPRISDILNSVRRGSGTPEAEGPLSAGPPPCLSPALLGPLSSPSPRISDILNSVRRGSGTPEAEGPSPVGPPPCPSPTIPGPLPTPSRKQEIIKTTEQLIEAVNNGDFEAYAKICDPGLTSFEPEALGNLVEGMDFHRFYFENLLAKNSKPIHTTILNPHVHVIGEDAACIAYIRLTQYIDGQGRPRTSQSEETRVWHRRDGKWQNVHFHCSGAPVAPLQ
# Description: as §1
# [20] = molecular target: T20, TESK2 (Homo sapiens, UniProt Q96S53)
# T20 construct: purchased Reaction Biology Corp
# Description: as §1
# [21] = molecular target: T21, LTK (Homo sapiens, UniProt P29376)
# T21 construct: purchased Reaction Biology Corp
# T21 sequence (P29376 17-864): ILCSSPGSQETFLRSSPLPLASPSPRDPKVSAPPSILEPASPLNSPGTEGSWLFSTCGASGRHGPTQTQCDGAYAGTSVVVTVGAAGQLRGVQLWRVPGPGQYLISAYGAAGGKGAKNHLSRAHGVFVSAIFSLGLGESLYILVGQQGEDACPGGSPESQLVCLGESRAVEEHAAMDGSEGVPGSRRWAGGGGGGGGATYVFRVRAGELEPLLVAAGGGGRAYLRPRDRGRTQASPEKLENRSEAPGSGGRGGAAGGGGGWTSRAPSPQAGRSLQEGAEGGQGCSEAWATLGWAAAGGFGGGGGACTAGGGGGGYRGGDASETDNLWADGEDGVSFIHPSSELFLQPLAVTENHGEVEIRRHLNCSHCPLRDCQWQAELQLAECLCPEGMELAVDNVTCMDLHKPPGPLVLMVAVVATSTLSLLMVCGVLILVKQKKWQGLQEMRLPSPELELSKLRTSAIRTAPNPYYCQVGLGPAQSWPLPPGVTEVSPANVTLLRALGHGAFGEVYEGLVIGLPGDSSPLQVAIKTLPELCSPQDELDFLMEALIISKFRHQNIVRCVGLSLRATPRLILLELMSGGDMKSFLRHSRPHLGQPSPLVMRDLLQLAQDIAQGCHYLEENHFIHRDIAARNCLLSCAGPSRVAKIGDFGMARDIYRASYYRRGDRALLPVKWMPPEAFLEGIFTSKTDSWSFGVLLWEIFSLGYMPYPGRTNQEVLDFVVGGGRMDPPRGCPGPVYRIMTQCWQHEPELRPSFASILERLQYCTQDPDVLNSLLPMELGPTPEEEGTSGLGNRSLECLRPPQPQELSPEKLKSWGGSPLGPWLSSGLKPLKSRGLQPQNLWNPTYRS
# Description: as §1
# [22] = molecular target: T22, SNRK (Homo sapiens, UniProt Q9NRH2)
# T22 construct: purchased Reaction Biology Corp
# Description: as §1
# [23] = molecular target: T23, STK23 (Homo sapiens, UniProt Q9UPE1)
# T23 construct: purchased Reaction Biology Corp
# Description: as §1
# [24] = molecular target: T24, ROCK1 (Homo sapiens, UniProt Q13464)
# T24 construct: purchased Reaction Biology Corp
# Description: as §1
# [25] = molecular target: T25, QSK (Homo sapiens, UniProt Q9Y2K2)
# T25 construct: purchased Reaction Biology Corp
# Description: as §1
# [26] = molecular target: T26, MKK7 (Homo sapiens, UniProt O14733)
# T26 construct: purchased Reaction Biology Corp
# Description: as §1
# [27] = molecular target: T27, DYRK2 (Homo sapiens, UniProt Q92630)
# T27 construct: purchased Reaction Biology Corp
# Description: as §1
# [28] = molecular target: T28, MYO3A (Homo sapiens, UniProt Q8NEV4)
# T28 construct: purchased Reaction Biology Corp
# Description: as §1
# [29] = molecular target: T29, EPHA6 (Homo sapiens, UniProt Q9UF33)
# T29 construct: purchased Reaction Biology Corp
# T29 sequence (Q9UF33 23-1036): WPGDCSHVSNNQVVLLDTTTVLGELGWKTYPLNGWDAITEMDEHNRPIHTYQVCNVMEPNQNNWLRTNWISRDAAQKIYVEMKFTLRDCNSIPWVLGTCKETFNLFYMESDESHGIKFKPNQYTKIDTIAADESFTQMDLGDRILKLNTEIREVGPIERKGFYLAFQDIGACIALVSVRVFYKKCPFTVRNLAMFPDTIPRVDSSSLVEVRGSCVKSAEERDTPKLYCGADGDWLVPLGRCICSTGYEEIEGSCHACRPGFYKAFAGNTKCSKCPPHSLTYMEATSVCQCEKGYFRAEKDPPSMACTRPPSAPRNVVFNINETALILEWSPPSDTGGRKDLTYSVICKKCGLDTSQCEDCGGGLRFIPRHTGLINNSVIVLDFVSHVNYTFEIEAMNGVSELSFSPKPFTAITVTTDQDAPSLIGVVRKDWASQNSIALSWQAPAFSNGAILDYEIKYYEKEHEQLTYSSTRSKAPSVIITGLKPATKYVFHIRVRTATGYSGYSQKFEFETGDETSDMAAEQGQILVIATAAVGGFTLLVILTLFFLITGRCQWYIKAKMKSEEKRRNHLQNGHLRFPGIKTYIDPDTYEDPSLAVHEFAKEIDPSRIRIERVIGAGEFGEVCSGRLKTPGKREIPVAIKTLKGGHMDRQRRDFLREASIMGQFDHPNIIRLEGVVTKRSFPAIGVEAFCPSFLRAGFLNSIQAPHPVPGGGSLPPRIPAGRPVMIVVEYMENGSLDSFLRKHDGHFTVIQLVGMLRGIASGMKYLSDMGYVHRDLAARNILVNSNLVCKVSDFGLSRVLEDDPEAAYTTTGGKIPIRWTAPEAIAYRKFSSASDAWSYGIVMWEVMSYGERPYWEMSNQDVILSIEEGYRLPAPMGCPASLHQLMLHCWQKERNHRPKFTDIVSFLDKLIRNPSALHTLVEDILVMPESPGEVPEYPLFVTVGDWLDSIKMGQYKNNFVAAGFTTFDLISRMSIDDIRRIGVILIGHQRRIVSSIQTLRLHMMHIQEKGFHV
# Description: as §1
# [30] = molecular target: T30, BMX (Homo sapiens, UniProt P51813)
# T30 construct: purchased Reaction Biology Corp
# T30 sequence (P51813 whole entry): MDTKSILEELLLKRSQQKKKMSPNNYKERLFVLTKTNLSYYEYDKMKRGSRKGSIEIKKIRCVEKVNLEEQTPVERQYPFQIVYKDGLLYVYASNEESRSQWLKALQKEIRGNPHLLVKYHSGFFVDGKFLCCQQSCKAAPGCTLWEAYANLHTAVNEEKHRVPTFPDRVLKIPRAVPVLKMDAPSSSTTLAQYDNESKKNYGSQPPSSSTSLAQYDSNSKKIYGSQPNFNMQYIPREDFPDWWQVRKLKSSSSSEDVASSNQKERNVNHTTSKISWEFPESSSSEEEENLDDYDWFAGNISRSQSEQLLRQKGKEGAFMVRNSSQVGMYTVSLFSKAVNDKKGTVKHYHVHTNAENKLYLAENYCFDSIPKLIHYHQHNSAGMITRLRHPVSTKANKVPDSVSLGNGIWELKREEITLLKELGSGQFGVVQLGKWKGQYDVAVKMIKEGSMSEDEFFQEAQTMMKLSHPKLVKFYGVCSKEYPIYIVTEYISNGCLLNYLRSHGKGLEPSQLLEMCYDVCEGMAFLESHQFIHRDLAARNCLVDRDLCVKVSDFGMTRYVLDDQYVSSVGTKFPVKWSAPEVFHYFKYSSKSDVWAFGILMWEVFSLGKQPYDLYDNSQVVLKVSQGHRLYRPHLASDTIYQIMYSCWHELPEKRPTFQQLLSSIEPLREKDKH
# Description: as §1
# [31] = molecular target: T31, CDK6/cyclinD1 (Homo sapiens, UniProt Q00534)
# T31 construct: purchased Reaction Biology Corp
# Description: as §1
# [32] = molecular target: T32, Src (Homo sapiens, UniProt P12931)
# T32 construct: purchased Reaction Biology Corp
# Description: as §1
# [33] = molecular target: T33, CSNK1D (Homo sapiens, UniProt P48730)
# T33 construct: purchased Reaction Biology Corp
# Description: as §1
# [34] = molecular target: T34, MAP4K3 (Homo sapiens, UniProt Q8IVH8)
# T34 construct: purchased Reaction Biology Corp
# Description: as §1
# [35] = molecular target: T35, EPHA1 (Homo sapiens, UniProt P21709)
# T35 construct: purchased Reaction Biology Corp
# T35 sequence (P21709 26-976): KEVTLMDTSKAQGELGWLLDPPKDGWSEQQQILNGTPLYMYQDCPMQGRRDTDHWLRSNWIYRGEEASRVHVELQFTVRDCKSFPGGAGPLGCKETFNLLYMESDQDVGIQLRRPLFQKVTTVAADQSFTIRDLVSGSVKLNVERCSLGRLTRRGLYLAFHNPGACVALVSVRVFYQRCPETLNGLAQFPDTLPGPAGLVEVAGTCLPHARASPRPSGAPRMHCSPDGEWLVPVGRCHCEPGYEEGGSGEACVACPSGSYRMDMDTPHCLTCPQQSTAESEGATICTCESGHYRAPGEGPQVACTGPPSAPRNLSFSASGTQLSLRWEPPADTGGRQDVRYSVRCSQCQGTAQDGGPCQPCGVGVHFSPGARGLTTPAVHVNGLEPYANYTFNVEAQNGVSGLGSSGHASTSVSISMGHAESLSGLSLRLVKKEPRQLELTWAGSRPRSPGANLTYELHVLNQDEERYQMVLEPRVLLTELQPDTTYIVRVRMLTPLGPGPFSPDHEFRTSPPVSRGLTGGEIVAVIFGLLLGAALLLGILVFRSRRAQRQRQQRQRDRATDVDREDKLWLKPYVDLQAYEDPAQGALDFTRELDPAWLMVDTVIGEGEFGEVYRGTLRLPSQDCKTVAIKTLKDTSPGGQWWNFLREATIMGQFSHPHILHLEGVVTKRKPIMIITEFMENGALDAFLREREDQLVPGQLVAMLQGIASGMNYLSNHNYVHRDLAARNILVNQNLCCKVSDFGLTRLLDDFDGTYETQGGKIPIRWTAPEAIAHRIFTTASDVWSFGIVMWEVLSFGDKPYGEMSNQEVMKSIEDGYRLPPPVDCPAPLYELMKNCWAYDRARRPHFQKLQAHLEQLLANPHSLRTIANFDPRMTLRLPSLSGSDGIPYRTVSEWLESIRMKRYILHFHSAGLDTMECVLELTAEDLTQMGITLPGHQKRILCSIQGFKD
# Description: as §1
# [36] = molecular target: T36, SRPK1 (Homo sapiens, UniProt Q96SB4)
# T36 construct: purchased Reaction Biology Corp
# Description: as §1
# [37] = molecular target: T37, PKCb1 (Homo sapiens, UniProt P05771)
# T37 construct: purchased Reaction Biology Corp
# Description: as §1
# [38] = molecular target: T38, DCAMKL2 (Homo sapiens, UniProt Q8N568)
# T38 construct: purchased Reaction Biology Corp
# Description: as §1
# [39] = molecular target: T39, CAMK1b (Homo sapiens, UniProt Q6P2M8)
# T39 construct: purchased Reaction Biology Corp
# Description: as §1
# [40] = molecular target: T40, MLCK (Homo sapiens, UniProt Q15746)
# T40 construct: purchased Reaction Biology Corp
# Description: as §1
# [41] = molecular target: T41, DMPK (Homo sapiens, UniProt Q09013)
# T41 construct: purchased Reaction Biology Corp
# Description: as §1
# [42] = molecular target: T42, DYRK1B (Homo sapiens, UniProt Q9Y463)
# T42 construct: purchased Reaction Biology Corp
# T42 sequence (Q9Y463 whole entry): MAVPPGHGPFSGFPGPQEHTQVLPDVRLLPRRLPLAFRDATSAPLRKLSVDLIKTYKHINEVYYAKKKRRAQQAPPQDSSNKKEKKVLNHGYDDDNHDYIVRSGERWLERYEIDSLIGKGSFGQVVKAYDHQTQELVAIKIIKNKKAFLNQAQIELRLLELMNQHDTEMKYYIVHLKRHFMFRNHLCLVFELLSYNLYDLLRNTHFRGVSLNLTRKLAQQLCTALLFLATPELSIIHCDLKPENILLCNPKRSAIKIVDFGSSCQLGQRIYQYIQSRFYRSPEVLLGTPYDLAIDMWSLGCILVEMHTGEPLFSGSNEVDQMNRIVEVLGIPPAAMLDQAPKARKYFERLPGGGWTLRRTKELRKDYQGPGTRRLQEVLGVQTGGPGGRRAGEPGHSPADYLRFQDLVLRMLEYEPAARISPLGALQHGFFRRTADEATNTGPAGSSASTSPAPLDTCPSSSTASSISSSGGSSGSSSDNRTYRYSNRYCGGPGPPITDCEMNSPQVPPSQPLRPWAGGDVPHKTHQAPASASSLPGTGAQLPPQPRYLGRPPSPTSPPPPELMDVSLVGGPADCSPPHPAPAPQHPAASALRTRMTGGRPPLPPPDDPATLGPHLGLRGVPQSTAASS
# Description: as §1
# [43] = molecular target: T43, MYLK3 (Homo sapiens, UniProt Q32MK0)
# T43 construct: purchased Reaction Biology Corp
# Description: as §1
structure (smiles),measurement,setting,value
"CCn1cnc2c(NCc3ccc(-c4ccccn4)nc3)nc(-c3ccc(N)nc3)nc21 [Compound 30d, N-([2,2′-Bipyridin]-5-ylmethyl)-2-(6-aminopyridin-3-yl)-9-ethyl-9H-purin-6-amine]",remaining activity at 10 µM,[1],105%
same,remaining activity at 10 µM,[2],30.2%
same,remaining activity at 10 µM,[3],21.2%
same,remaining activity at 10 µM,[4],71.5%
same,remaining activity at 10 µM,[5],16.5%
same,remaining activity at 10 µM,[6],91.5%
same,remaining activity at 10 µM,[7],81.3%
same,remaining activity at 10 µM,[8],86.7%
same,remaining activity at 10 µM,[9],92.2%
same,remaining activity at 10 µM,[10],93.5%
same,remaining activity at 10 µM,[11],94%
same,remaining activity at 10 µM,[12],56.1%
same,remaining activity at 10 µM,[13],100%
same,remaining activity at 10 µM,[14],93.1%
same,remaining activity at 10 µM,[15],38%
same,remaining activity at 10 µM,[16],92.4%
same,remaining activity at 10 µM,[17],86.6%
same,remaining activity at 10 µM,[18],80.5%
same,remaining activity at 10 µM,[19],65.2%
same,remaining activity at 10 µM,[20],83.7%
same,remaining activity at 10 µM,[21],73.6%
same,remaining activity at 10 µM,[22],93%
same,remaining activity at 10 µM,[23],82.8%
same,remaining activity at 10 µM,[24],97.2%
same,remaining activity at 10 µM,[25],30.2%
same,remaining activity at 10 µM,[26],96.3%
same,remaining activity at 10 µM,[27],22.3%
same,remaining activity at 10 µM,[28],71.3%
same,inhibition at 10 µM,[29],> 95%
same,remaining activity at 10 µM,[29],3%
same,remaining activity at 10 µM,[30],141%
same,remaining activity at 10 µM,[31],24.2%
same,remaining activity at 10 µM,[32],60.1%
same,remaining activity at 10 µM,[33],10.2%
same,remaining activity at 10 µM,[34],49.6%
same,remaining activity at 10 µM,[35],13.2%
same,remaining activity at 10 µM,[36],54.3%
same,remaining activity at 10 µM,[37],89.9%
same,remaining activity at 10 µM,[38],55%
same,remaining activity at 10 µM,[39],66.8%
same,remaining activity at 10 µM,[40],63.4%
same,remaining activity at 10 µM,[41],90.4%
same,inhibition at 10 µM,[42],> 95%
same,remaining activity at 10 µM,[42],3.2%
same,remaining activity at 10 µM,[43],105%
